Legend:
[1] = system: SARS-CoV-2 South African variant (linage: B.1.351); test: microbe, parasite or virus in culture; format: cell-based; conditions: Severe acute respiratory syndrome coronavirus 2, Calu-3, read-out: IC50, inhibition of SARS-CoV-2 replication
[2] = system: SARS-CoV-2 Scotland variant (linage: B.1.222); test: microbe, parasite or virus in culture; format: cell-based; conditions: Severe acute respiratory syndrome coronavirus 2, Calu-3, read-out: IC50, inhibition of SARS-CoV-2 replication

Row | SMILES | IC50 [1] [nM] | IC50 [2] [nM]
1 | CN1C(=O)c2ccccc2[S+]([O-])c2cc([N+](=O)[O-])ccc2S1(=O)=O (stereo not shown) [MU-UNMC-1, 6-methyl-2-nitrodibenzo[d,g][1,6,2]dithiazocin-7(6H)-one 5,5,12-trioxide] | 9270 | 2640
2 | O=C1Nc2cc(C(F)(F)F)ccc2Oc2ccsc21 [MU-UNMC-2, 7-(trifluoromethyl) benzo[b]thieno[2,3-f][1,4]oxazepin-10(9H)-one] | 3000 | 1390
